Source: the Kinase Knowledgebase extract (Sharma et al. 2016)

What follows are compounds tested against EGFR (human) (UniProt P00533).
EGFR (human), sequence (P00533 whole entry, looked up): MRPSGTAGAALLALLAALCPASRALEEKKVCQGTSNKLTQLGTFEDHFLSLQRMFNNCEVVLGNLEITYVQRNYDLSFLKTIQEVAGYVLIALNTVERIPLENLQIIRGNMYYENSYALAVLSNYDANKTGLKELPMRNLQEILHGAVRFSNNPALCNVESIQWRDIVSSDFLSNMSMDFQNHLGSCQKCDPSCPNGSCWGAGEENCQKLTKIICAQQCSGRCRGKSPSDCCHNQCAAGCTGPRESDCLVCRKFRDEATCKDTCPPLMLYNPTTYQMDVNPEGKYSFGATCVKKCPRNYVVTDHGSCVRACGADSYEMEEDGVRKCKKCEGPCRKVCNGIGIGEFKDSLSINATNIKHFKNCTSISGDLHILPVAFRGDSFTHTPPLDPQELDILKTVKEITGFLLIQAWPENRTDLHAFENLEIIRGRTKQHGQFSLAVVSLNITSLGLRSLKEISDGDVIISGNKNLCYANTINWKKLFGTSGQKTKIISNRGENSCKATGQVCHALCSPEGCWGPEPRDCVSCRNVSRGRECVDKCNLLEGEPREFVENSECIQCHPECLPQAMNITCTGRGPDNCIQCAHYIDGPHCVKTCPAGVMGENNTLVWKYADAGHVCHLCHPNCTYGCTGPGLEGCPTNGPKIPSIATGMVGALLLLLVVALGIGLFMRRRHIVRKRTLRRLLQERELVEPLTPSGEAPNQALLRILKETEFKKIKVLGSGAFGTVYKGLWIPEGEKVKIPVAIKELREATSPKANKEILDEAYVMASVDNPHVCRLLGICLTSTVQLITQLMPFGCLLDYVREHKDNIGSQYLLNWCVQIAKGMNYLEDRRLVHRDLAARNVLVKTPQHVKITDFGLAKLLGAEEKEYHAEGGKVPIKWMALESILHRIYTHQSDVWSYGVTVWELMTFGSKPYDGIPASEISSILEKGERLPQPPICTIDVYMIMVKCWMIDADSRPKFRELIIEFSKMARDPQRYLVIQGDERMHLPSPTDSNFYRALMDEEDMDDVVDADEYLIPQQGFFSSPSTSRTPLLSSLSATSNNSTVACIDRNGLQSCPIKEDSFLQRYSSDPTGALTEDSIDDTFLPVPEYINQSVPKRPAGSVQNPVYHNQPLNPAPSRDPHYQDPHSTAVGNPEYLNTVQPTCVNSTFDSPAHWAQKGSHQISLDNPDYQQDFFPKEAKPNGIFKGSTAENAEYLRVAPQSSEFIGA

IC50, < 100 nM:
Cc1nc(-c2cccc(NC(=O)c3c(F)cccc3F)c2)c(-c2ccnc(Nc3ccc(OC4CCN(C(=O)OCc5ccccc5)CC4)c(F)c3)n2)s1
NS(=O)(=O)CCc1cccc(Nc2nccc(-c3scnc3-c3cccc(NC(=O)c4cc(F)ccc4F)c3)n2)c1
CCN(CC)CCOc1cccc(Nc2nccc(-c3sc(N)nc3-c3cccc(NC(=O)c4c(F)cccc4F)c3)n2)c1
NS(=O)(=O)CCc1cccc(Nc2nccc(-c3scnc3-c3cccc(NC(=O)c4c(F)cccc4F)c3)n2)c1
CC(=O)N1CCC(Oc2ccc(Nc3nccc(-c4sc(C)nc4-c4cccc(NC(=O)c5c(F)cccc5F)c4)n3)cc2F)CC1
Nc1nc(-c2cccc(NC(=O)c3c(F)cccc3F)c2)c(-c2ccnc(Nc3ccc4c(c3)CNCC4)n2)s1
CCc1nc(-c2cccc(NC(=O)c3c(F)cccc3F)c2)c(-c2ccnc(Nc3ccc(N4CCC(N5CCCCC5)CC4)c(F)c3)n2)s1
CC(C)c1nc(-c2cccc(NC(=O)c3c(F)cccc3F)c2)c(-c2ccnc(Nc3cccc(OCCN(C)C)c3)n2)s1
Cc1cc(-c2sc(N)nc2-c2cccc(NC(=O)c3c(F)cccc3F)c2)nc(Nc2cccc(OCCN(C)C)c2)n1
CN(C)C1Cc2ccc(Nc3nccc(-c4sc(N)nc4-c4cccc(NC(=O)c5c(F)cccc5F)c4)n3)cc2C1 (stereo not given)
CCc1nc(-c2cccc(NC(=O)c3c(F)cccc3F)c2)c(-c2ccnc(Nc3ccc(OCCN(C)C)c(F)c3)n2)s1
CS(=O)(=O)Cc1ccc(Nc2nccc(-c3scnc3-c3cccc(NC(=O)c4c(F)cccc4F)c3)n2)cc1
CCc1nc(-c2cccc(NC(=O)c3c(F)cccc3F)c2)c(-c2ccnc(Nc3ccc(OCCN4CCCC4)c(F)c3)n2)s1
O=C(Cc1cccs1)Nc1cccc(-c2ncsc2-c2ccnc(Nc3ccc4c(c3)NC(=O)CO4)n2)c1
Nc1nc(-c2cccc(OCc3ccccc3)c2)c(-c2ccnc(Nc3cccc(-c4cnco4)c3)n2)s1
Cc1cc(Nc2nccc(-c3sc(N(C)C)nc3-c3cccc(NC(=O)c4c(F)cccc4F)c3)n2)ccc1CC1CCNCC1
CN(C)CCOc1ccc(Nc2nccc(-c3sc(N)nc3-c3cccc(NC(=O)C4CCCCC4)c3)n2)cc1Cl
COc1ccc(Nc2nccc(-c3scnc3-c3cccc(NC(=O)Cc4cccs4)c3)n2)cc1OCCN(C)C
O=C1COc2cc(Nc3nccc(-c4scnc4-c4cccc(NC(=O)c5cc(F)ccc5F)c4)n3)ccc2N1
COc1cccc(C(=O)Nc2cccc(-c3nc(C)sc3-c3ccnc(Nc4ccc5c(c4)CN(C)CC5)n3)c2)c1
CN1CCN(c2nc(-c3cccc(NC(=O)c4c(F)cccc4F)c3)c(-c3ccnc(Nc4cccc(CN5CCCC5)c4)n3)s2)CC1
COc1ccc(Nc2nccc(-c3sc(N)nc3-c3cccc(NC(=O)c4c(F)cccc4F)c3)n2)cc1F
CCc1nc(-c2cccc(NC(=O)c3c(F)cccc3F)c2)c(-c2ccnc(Nc3ccc(OCCN4CCCC4)c(Cl)c3)n2)s1
CC(=O)Nc1nc(-c2cccc(NC(=O)c3c(F)cccc3F)c2)c(-c2ccnc(Nc3cccc(CN4CCCC4)c3)n2)s1
Cc1nc(-c2cccc(NC(=O)c3cccc(C(F)(F)F)c3)c2)c(-c2ccnc(Nc3ccc4c(c3)CN(C)CC4)n2)s1
Nc1nc(-c2cccc(C(=O)Nc3c(F)cccc3F)c2)c(-c2ccnc(Nc3cccc(CN4CCCC4)c3)n2)s1
CN(C)c1nc(-c2cccc(NC(=O)c3c(F)cccc3F)c2)c(-c2ccnc(Nc3cccc(CN4CCCC4)c3)n2)s1
O=C(Nc1cccc(-c2nc(CO)sc2-c2ccnc(Nc3ccc(OCCN4CCCC4)c(F)c3)n2)c1)c1c(F)cccc1F
CCc1nc(-c2cccc(NC(=O)c3c(F)cccc3F)c2)c(-c2ccnc(Nc3cccc(CN4CCCC4)c3)n2)s1
COCCNc1nc(-c2cccc(NC(=O)c3cc(F)ccc3F)c2)c(-c2ccnc(Nc3ccc(OC)c(F)c3)n2)s1
